The results in this text go back to publication PMC5979539 (International Journal of Molecular Sciences, 2018).

One assay concerns the target T1, PDC-109 (Bos taurus, UniProt P02784).
T1 construct: PDC-109, purified from bull seminal plasma, was kindly donated by J.J. Calvete; tissue gift of J.J. Calvete; host or cells: bull seminal plasma
T1 sequence (P02784 26-134): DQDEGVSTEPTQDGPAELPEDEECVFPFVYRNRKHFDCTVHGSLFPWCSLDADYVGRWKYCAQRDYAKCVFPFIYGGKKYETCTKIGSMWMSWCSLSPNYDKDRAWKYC
Put plainly: SPR binding profile and kinetics of PDC-109 on immobilized neo-glycoprobes. Also noted: species or system bovine. The conditions noted are these: for derived association (KA) constant / kd / ka: immobilized glycoprobe, PDC-109 6.25 to 100 μM, HBS-P pH 7.4, 25 °C, 1:1 Langmuir model; for kd / ka: 3 to 6 repeat experiments; for ka: 30 μL/min, CV exceeding 50% in particular cases; for binding to PDC-109 in words: immobilized probe, PDC-109 flown over. From the text:
While the lipid selectivity and kinetics of PDC-109 has been characterized in considerable detail, its interaction with carbohydrate epitopes remains largely uncharted, despite its potential role in sperm reservoir formation in the female genital tract. We have therefore performed SPR experiments with PDC-109 and the most relevant mammalian glycotopes, particularly those containing Fuc epitopes. Once SPR sensor chips were functionalized with the different synthetic glycoprobes and evaluated with specific lectins (Section 2.1.2) they were used to characterize both qualitatively and quantitatively the interaction of PDC-109. For kinetic analysis, several concentrations in the 6.25 to 100 μM range were analyzed and a 1:1 Langmuir binding model was chosen for sensorgram fitting.
Data dispersion was attributable to the unusual sensorgrams observed, reflecting a complex binding event, particularly in the association phase of PDC-109. […] In a conventional, straightforward binding event, the response—i.e., the signal rise over time, reflecting protein binding to the sensor surface—reaches a constant value once equilibrium is established, and remains so until the protein solution passed over the sensor chip is replaced with buffer, giving way to the spontaneous dissociation process and subsequent surface regeneration.
Binding experiments were performed at 25 °C and 30 μL/min flow rate. […] Sensor surface was regenerated with a 60 μL-injection of specific carbohydrate (10 mM lac, 500 mM αMe-Man, 0.5 M αMe-Fuc, and 10 mM Sia) followed by a 60 μL-injection of NaCl 1 M.
(In general: Surface plasmon resonance follows binding to a sensor surface in real time, without labels.)

For the next assay, the target named is Con A (Canavalia ensiformis, UniProt P02866). The conditions noted are these: for ka1: SPR BIAcore 3000, glycoprobe immobilized on CM5 chip, HBS-P pH 7.4 + CaCl2 5 mM, MnCl2 1 mM; for ka1 / kd1 / ka2 / kd2: Con A 2.5-80 nM, bivalent model; for ka1 / kd1: first binding event; for KA1 / kd1 / ka2 / kd2: SPR; for KA1: affinity constant of first event, KA1 = ka1/kd1; for kd1 / ka2 / kd2: immobilized glycoprobe; for ka2 / kd2: second binding event. Here is the method: Subsequently, glycoprobes displaying mannobioses only differing in their glycosidic linkage (Man-α1,2-Man, Man-α1,3-Man and Man-α1,6-Man) were immobilized on a sensor chip and their interaction with concanavalin A (Con A) was studied. Con A is a relatively complex lectin, organized as a β-barrel-like tetramer at pH > 7, each dimer subunit (D2 symmetry) with two CRDs situated on opposing faces of the protein. Sensorgrams of different Con A concentrations were recorded and kinetic constants determined by simultaneously fitting the experimental curves to a bivalent kinetic model (Figure 1). This model allows the first and second binding events to be separately described by two sets of rate constants (Table 2).
All SPR experiments were performed in a BIAcore 3000 instrument (GE Healthcare, Uppsala, Sweden) using carboxymethyl-functionalized CM5 or C1 sensor chips and HBS-P (0.01 M HEPES pH 7.4; 0.15 M NaCl; 0.005% v/v surfactant P20) as running buffer, supplemented when necessary with CaCl2 (5 mM) and MnCl2 (1 mM) or other competitive reagents/adjuvants such as bovine serum albumin (BSA), carboxymethyldextran (CMD) or polivinylpirrolidone (PVP). SPR sensorgram analysis and curve fitting were done with the BIAevaluation 4.1.1 sofware package (GE Healthcare, Uppsala, Sweden). In all experiments, specific binding responses were obtained by subtracting from each channel the reference channel response. Moreover, in most cases a double referencing was applied (i.e., reference Fc1 channel plus an internal reference standard, namely buffer injection subtraction).
For all immobilizations, the carboxyl functionalities of the CM5 (or C1) sensor chip surfaces were activated by injecting a mixture of 0.05 M NHS and 0.2 M EDC (1:1 v/v; 50 µL) at 5 µL/min. Then, glycopeptide solutions were passed at 1–2 mg/mL in 10 mM NaOAc for approximately 12 min over the activated surface. For immobilization, pH 4 or pH 6 conditions were used, as required. In the specific case of PDC-109, protein solution was passed at 0.05 µg/µL in 10 mM NaOAc pH 4 over the activated surface. Afterwards, unreacted groups on all chip surfaces were blocked with ethanolamine-HCl (1 M; pH 8.5; 60 µL) or H2O (60 µL). The difference, in resonance units (RU), between readings after surface activation and final response was converted into amount of immobilized glycopeptide (0.981 RU~1 pg/mm^2 for glycopeptides, 1 RU = 1 pg/mm^2 for proteins; see legend Table 6).
All kinetic measurements were carried out by running a manually programmed sequence of binding experiments using several protein range concentrations and two flow rates. Regeneration of the sensor surface was accomplished in a specific-manner by injecting the complementary carbohydrate (10 mM lac, 100–500 mM αMe-Man, 0.5 M αMe-Fuc or L-Fuc, 0.5 M GlcNAc, 0.5 M Glc, and 10 mM Sia). Alternatively, other procedures such as glycoprotein solutions (e.g., fetuin at 2–5 g/L), low pH-buffers (e.g., 10 mM glycine pH 1.5–2.5), high salt (e.g., 1 M NaCl), high pH or specific chemicals were also used to break the interaction.
For the evaluation of the sensor chips, binding experiments and kinetic studies were carried out with the various glycoprobes and specific well-characterized lectins (ECA, Con A, LTA, UEA-I, MAA, and SNA). Several concentrations of each lectin were prepared by serial 2/3-fold dilutions of the most concentrated sample in running buffer supplemented with CaCl2 (5 mM) and MnCl2 (1 mM). Thus, concentrations varied from 66 nM to 2.5 µM for ECA; from 2.5 to 80 nM for Con A; from 31.25 nM to 1 µM for LTA and UEA-I; from 250 nM to 1.9 µM for MAA and from 74 to 563 nM for SNA. Analyses were performed at 20 µL/min and kinetic studies at 10 and 40 μL/min. After lectin injection, the sample solution was replaced by running buffer and the dissociation phase was monitored for 3–6 min.

The target in a further assay is SNA (Sambucus nigra, UniProt Q41358).
SNA, sequence (Q41358 309-570 limits assumed): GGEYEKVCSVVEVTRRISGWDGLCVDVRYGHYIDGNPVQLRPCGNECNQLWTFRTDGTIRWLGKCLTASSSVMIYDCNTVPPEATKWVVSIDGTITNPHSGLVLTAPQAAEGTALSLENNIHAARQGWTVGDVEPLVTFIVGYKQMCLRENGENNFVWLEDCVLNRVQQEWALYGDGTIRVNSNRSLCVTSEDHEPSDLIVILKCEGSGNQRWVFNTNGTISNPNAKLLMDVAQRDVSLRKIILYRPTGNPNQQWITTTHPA
SNA, sequence (Q41358 29-290 partner limits assumed): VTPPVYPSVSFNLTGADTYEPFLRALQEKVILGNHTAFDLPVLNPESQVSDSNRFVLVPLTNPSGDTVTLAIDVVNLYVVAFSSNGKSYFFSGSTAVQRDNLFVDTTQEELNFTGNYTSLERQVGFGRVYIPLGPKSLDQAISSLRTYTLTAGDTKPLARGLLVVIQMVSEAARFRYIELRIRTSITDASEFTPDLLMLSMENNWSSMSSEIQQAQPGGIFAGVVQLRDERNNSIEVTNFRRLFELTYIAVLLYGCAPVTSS

As for “Fuc-α1,3-GlcNAc-Aoa(m)-GFKKG [neo-glycoprobe: Fuc-α1,3-GlcNAc oxime-ligated to the peptide module N[Me]-O-Aoa-GFKKG]”, on PDC-109, the “derived association (KA) constant” value is 237000 M⁻¹, the kd was determined as 0.00165 s⁻¹ and the ka came out at 763 M⁻¹ s⁻¹.

Take “Neu5Ac-α2,3/6-Gal-β1,4-Glc-N[Me]-O-Aoa-GFKKG-amide [Neu5Ac-α2,3/6-Gal-β1,4-Glc-Aoa(m)-GFKKG, neo-glycoprobe: Neu5Ac-α2,3/6-Gal-β1,4-Glc oxime-ligated to the peptide module N[Me]-O-Aoa-GFKKG]”: at PDC-109, the “derived association (KA) constant” value was 27700 M⁻¹, the kd came to 0.0081 s⁻¹ and the ka was 2120 M⁻¹ s⁻¹.

For “Gal-β1,3-GlcNAc-Aoa(m)-GFKKG [neo-glycoprobe: Gal-β1,3-GlcNAc oxime-ligated to the peptide module N[Me]-O-Aoa-GFKKG]”, at PDC-109, the “derived association (KA) constant” value stood at 17000 M⁻¹, the kd came out at 0.00756 s⁻¹ and the ka came to 128 M⁻¹ s⁻¹.

Consider “Man-α1,2-Man-Aoa(m)-GFKKG [neo-glycoprobe: Man-α1,2-Man oxime-ligated to the peptide module N[Me]-O-Aoa-GFKKG]”, for which, on Con A, the ka1 came to 16800 M⁻¹ s⁻¹, the KA1 is 126000 M⁻¹, the kd1 worked out at 0.133 s⁻¹ and the ka2 was 2.88 × 10^−2 RU^−1 s^−1. Also, the kd2 on Con A amounted to 0.0706 s⁻¹. In addition, at PDC-109, the “derived association (KA) constant” value amounted to 78700 M⁻¹, the kd is 0.013 s⁻¹ and the ka is 1020 M⁻¹ s⁻¹.

As for “Fuc-α1,4-GlcNAc-Aoa(m)-GFKKG [neo-glycoprobe: Fuc-α1,4-GlcNAc oxime-ligated to the peptide module N[Me]-O-Aoa-GFKKG]”, on PDC-109, the kd was 8.83e-05 s⁻¹, the ka is 2910 M⁻¹ s⁻¹ and the “binding to PDC-109 in words” value was “highest binding affinity”.

Turning to “Neu5Ac-α2,6-Gal-β1,4-GlcNAc-N[Me]-O-Aoa-GFKKG-amide [Neu5Ac-α2,6-Gal-β1,4-GlcNAc-Aoa(m)-GFKKG]”, at PDC-109, the “derived association (KA) constant” value is 166000 M⁻¹, the kd came to 0.00253 s⁻¹, the ka was 1880 M⁻¹ s⁻¹ and the “binding to PDC-109 in words” value was “favored interaction”. In addition, on SNA, the KA is reported as 6.27 × 10^6 M^−^1 and the “carbohydrate specificity of SNA in words” value is given as “marked preference”. Besides, the ka at SNA (pH 7.4) is on record as 1.02 × 10^4 M^−^1 s^−^1.

For the substance “N[Me]-O-Aoa-GFKKG-amide [peptide module for oxime ligation]”, the “binding to PDC-109 in words” value at PDC-109 is reported as “undesirable, non-specific binding”.

Turning to “Gal-β1,6-GlcNAc-Aoa(m)-GFKKG [neo-glycoprobe: Gal-β1,6-GlcNAc oxime-ligated to the peptide module N[Me]-O-Aoa-GFKKG]”, at PDC-109, the “derived association (KA) constant” value was determined as 22700 M⁻¹, the kd stood at 0.0208 s⁻¹ and the ka was determined as 472 M⁻¹ s⁻¹.

As to “Man-α1,6-Man-Aoa(m)-GFKKG [neo-glycoprobe: Man-α1,6-Man oxime-ligated to the peptide module N[Me]-O-Aoa-GFKKG]”, on Con A, the ka1 was 8910 M⁻¹ s⁻¹, the KA1 was determined as 308000 M⁻¹, the kd1 turned out to be 0.0289 s⁻¹ and the ka2 was 7.15 × 10^−4 RU^−1 s^−1. The same substance gave a kd2 on Con A of 0.019 s⁻¹. Also, on PDC-109, the “derived association (KA) constant” value came to 23800 M⁻¹, the kd came out at 0.0173 s⁻¹ and the ka was 410 M⁻¹ s⁻¹.

Regarding “Gal-β1,4-GlcNAc-Aoa(m)-GFKKG [neo-glycoprobe: Gal-β1,4-GlcNAc oxime-ligated to the peptide module N[Me]-O-Aoa-GFKKG]”, at PDC-109, the “derived association (KA) constant” value is 10000 M⁻¹, the kd worked out at 0.0086 s⁻¹ and the ka came to 86.2 M⁻¹ s⁻¹.

Turning to “Fuc-α1,6-GlcNAc-Aoa(m)-GFKKG [neo-glycoprobe: Fuc-α1,6-GlcNAc oxime-ligated to the peptide module N[Me]-O-Aoa-GFKKG]”, on PDC-109, the “derived association (KA) constant” value worked out at 73100 M⁻¹, the kd came out at 0.00345 s⁻¹ and the ka stood at 645 M⁻¹ s⁻¹.

On to “Man-α1,3-Man-Aoa(m)-GFKKG [neo-glycoprobe: Man-α1,3-Man oxime-ligated to the peptide module N[Me]-O-Aoa-GFKKG]”, for which, on Con A, the ka1 turned out to be 22800 M⁻¹ s⁻¹, the KA1 is 345000 M⁻¹, the kd1 amounted to 0.0661 s⁻¹ and the ka2 was 3.78 × 10^−3 RU^−1 s^−1. Besides, the kd2 on Con A amounted to 0.0629 s⁻¹. Also, at PDC-109, the “derived association (KA) constant” value was determined as 87700 M⁻¹, the kd came to 0.0044 s⁻¹ and the ka amounted to 386 M⁻¹ s⁻¹.
